Where two headings read alike, the source gives them in different places.
Columns and labels:
Format in all cases: cell-based
[1] = molecular target: SSTR3 (UniProt P32745); assay: cAMP functional agonist assay, CHO cells expressing SSTR3; settings: CHO cells stably expressing SSTR3, cAMP
Method: (§1) Chinese hamster ovary (CHO) cells stably expressing one of the six human or rodent somatostatin receptor subtypes are grown to 85-100% confluence on standard tissue culture dishes in F12-Ham's growth media (Hyclone) with following additives: 10% donor calf serum (Hyclone), 200 U/mL penicillin (Hyclone), 200 μg/mL streptomycin (Hyclone), 20 mM HEPES (Hyclone), 200 μg/mL hygromycin Hyclone.
(§2) General overview: All SSTR subtypes are Gi coupled G-protein coupled receptors (GPCRs) that lead to decreases in intracellular cyclic AMP (cAMP) when activated by an agonist. Therefore, measurement of intracellular cAMP levels can be used to assess whether compounds of the invention are agonists of SSTR subtypes (John Kelly, Troy Stevens, W. Joseph Thompson, and Roland Seifert, Current Protocols in Pharmacology, 2005, 2.2.1-2.2). One example of an intracellular cAMP assay is described below.

[2] = molecular target: T1, SSTR5 (Homo sapiens, UniProt P35346); assay: cAMP functional agonist assay, CHO cells expressing SSTR5; settings: CHO cells stably expressing SSTR5, cAMP
T1 construct: expressed in transfected cells
T1 sequence (P35346 whole entry): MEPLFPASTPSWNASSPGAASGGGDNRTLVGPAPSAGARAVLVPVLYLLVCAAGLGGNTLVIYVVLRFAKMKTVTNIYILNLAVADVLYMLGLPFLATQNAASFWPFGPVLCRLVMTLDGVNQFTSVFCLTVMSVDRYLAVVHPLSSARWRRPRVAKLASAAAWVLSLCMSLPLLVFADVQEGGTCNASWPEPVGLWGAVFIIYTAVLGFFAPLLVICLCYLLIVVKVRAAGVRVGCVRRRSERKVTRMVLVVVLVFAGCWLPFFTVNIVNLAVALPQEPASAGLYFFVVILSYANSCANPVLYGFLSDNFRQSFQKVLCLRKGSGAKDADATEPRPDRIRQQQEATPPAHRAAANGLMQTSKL
Method: as §1, §2

[3] = molecular target: T2, SSTR4 (Homo sapiens, UniProt P31391); assay: cAMP functional agonist assay, CHO cells expressing SSTR4
T2 construct: expressed in transfected cells
T2 sequence (P31391 whole entry): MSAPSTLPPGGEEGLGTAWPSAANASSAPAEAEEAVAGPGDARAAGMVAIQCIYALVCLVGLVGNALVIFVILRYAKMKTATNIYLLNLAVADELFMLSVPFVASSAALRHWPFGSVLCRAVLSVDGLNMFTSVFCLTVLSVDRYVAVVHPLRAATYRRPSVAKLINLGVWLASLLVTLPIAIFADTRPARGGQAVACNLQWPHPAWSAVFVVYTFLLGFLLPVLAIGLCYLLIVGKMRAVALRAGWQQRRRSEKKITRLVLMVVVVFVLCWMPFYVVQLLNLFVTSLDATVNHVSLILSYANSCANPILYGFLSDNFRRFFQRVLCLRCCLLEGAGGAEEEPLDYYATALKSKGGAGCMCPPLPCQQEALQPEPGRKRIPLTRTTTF
Method: as §1
(§3) General overview: All SSTR subtypes are Gi coupled G-protein coupled receptors (GPCRs) that lead to decreases in intracellular cyclic AMP (cAMP) when activated by an agonist. […] One example of an intracellular cAMP assay is described below.

[4] = molecular target: T3, human somatostatin receptor subtype 2a (Homo sapiens, UniProt P30874); assay: cAMP assay for SSTR2a agonists (HTRF cAMP kit, NKH-477 stimulated); settings: CHO cells stably expressing human SSTR2a, 1.6 μM NKH-477
T3 construct: expressed in transfected cells
T3 sequence (P30874 whole entry): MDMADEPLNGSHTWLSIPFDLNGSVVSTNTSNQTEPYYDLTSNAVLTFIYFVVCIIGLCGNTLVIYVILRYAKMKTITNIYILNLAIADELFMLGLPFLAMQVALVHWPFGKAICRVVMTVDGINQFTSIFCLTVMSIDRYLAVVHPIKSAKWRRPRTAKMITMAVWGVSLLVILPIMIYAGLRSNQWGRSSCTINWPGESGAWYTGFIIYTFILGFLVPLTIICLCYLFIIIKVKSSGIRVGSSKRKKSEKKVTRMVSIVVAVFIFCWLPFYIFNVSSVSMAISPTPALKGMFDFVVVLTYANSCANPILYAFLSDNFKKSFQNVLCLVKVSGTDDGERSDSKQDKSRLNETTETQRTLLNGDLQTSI
Method: as §1, §2
Four days prior to the assay, 5000 Chinese hamster ovary (CHO) cells stably expressing the human somatostatin receptor subtype 2a are plated in each well of a 96-well tissue culture plate (Nest Biotech Cell, flat bottom with low evaporation tissue culture treated; Polystyrene; Non-Pyrogenic) in F12-Ham's media (100 μL/well) supplemented with 200 μg/mL of hygromycin. Incubate at 37 C, 5% CO2, 95% humidity for four days. The cells should reach full confluence. On the day of the assay, various dilutions of the compounds of the invention are prepared in assay buffer (HRTF cAMP kit, Cisbio) in the presence of 1.6 μM NKH-477 (a water-soluble forskolin derivative) and 50 μL of the dilutions are added to the cultured cells and incubated for 20 minutes at 37° C. […] 50 μL of lysis buffer (HRTF cAMP kit, Cisbio) is added to each well and incubated at room temperature for 30 minutes, after which 150 μL assay buffer is added to each well. In a 384-well plate (Grenier, 784-080), 10 μL of assay mixture is added to 10 μL of developing mixture, containing cAMP detection and visualization antibodies are added and the assay is allowed incubate for 1-24 hours at room temperature. The intracellular cAMP concentrations are then measured using a commercially available detection kit (for example, the cAMP HTRF kit, Cisbio). The measured intracellular cAMP concentrations are plotted vs. the concentration of the compounds of the invention and the EC50 of the compounds are calculated using standard methods.

[5] = molecular target: T4, SSTR1 (Homo sapiens, UniProt P30872); assay: cAMP functional agonist assay, CHO cells expressing SSTR1
T4 construct: expressed in transfected cells
T4 sequence (P30872 whole entry): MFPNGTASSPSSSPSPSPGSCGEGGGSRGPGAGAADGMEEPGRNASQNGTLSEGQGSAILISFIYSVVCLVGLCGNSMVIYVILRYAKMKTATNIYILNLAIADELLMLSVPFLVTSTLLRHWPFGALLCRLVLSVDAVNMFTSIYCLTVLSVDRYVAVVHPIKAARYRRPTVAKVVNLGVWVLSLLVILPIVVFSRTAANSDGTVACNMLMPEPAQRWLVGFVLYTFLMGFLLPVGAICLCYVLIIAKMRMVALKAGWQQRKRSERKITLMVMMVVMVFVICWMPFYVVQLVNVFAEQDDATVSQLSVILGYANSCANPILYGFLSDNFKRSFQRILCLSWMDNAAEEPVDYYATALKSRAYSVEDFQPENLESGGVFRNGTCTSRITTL
Method: as §1, §3

[6] = CHO cells stably expressing SSTR4, cAMP, read-out: SSTR4 EC50

SSTR3, sequence (P32745 whole entry): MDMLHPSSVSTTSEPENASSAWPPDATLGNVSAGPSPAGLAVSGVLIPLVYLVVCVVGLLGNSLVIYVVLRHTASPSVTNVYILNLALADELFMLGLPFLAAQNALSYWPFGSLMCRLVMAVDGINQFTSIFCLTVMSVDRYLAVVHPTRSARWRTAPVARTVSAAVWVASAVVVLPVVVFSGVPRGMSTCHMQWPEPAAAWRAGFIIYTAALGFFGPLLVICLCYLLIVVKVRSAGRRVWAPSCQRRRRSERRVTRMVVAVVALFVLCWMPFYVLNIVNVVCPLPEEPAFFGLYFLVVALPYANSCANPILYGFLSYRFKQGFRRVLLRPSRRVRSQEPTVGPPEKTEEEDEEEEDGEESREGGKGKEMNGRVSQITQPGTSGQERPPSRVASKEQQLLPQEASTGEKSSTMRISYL

Molecule	EC50 [1] [nM]	EC50 [2] [nM]	EC50 [3, 6] [nM]	EC50 [4] [nM]	EC50 [5] [nM]	EC50 [3] [nM]
3-[5-({[(2S)-2-aminobutyl](methyl)amino}methyl)-6-(3,5-dimethylphenyl)-4-oxo-3H,4H-pyrido[2,3-d]pyrimidin-3-yl]-5-fluorobenzamide [Compound A-64]	100 to 10000	100 to 10000	100 to 10000	< 100		
Cc1cc(C)cc(-c2cnc3ncn(-c4cccc(O)c4)c(=O)c3c2CN(CCN)Cc2ccccc2)c1 [Compound A-5, 5-{[(2-aminoethyl)(benzyl)amino]methyl}-6-(3,5-dimethylphenyl)-3-(3-hydroxyphenyl)-3H,4H-pyrido[2,3-d]pyrimidin-4-one]	100 to 10000	> 10000	< 100	100 to 10000		
Cc1cc(C)cc(-c2cnc3ncn(-c4cccc(O)c4)c(=O)c3c2CN(C)CCNCc2ccccc2)c1 [Compound A-6, 5-({[2-(benzylamino)ethyl](methyl)amino}methyl)-6-(3,5-dimethylphenyl)-3-(3-hydroxyphenyl)-3H,4H-pyrido[2,3-d]pyrimidin-4-one]		> 10000	100 to 10000	100 to 10000		
Cc1ccccc1-c1cnc2ncn(-c3cccc(O)c3)c(=O)c2c1CN(C)CC1CCCCN1 (stereo not drawn) [Compound A-20, 3-(3-hydroxyphenyl)-5-{[methyl(piperidin-2-ylmethyl)amino]methyl}-6-(2-methylphenyl)-3H,4H-pyrido[2,3-d]pyrimidin-4-one]	100 to 10000	> 10000	< 100	100 to 10000		
CC(C)c1cccc(-c2cnc3ncn(-c4cccc(O)c4)c(=O)c3c2CN(C)CC2CCCCN2)c1 (stereo not drawn) [Compound A-22, 3-(3-hydroxyphenyl)-5-{[methyl(piperidin-2-ylmethyl)amino]methyl}-6-[3-(propan-2-yl)phenyl]-3H,4H-pyrido[2,3-d]pyrimidin-4-one]			< 100	100 to 10000		
COc1cccc(-c2cnc3ncn(-c4cccc(O)c4)c(=O)c3c2CN(C)CC2CCCCN2)c1 (stereo not drawn) [Compound A-23, 3-(3-hydroxyphenyl)-6-(3-methoxyphenyl)-5-{[methyl(piperidin-2-ylmethyl)amino]methyl}-3H,4H-pyrido[2,3-d]pyrimidin-4-one]	< 100		< 100	< 100		
Cc1c(F)cccc1-c1cnc2ncn(-c3cccc(O)c3)c(=O)c2c1CN(C)CC1CCCCN1 (stereo not drawn) [Compound A-26, 6-(3-fluoro-2-methylphenyl)-3-(3-hydroxyphenyl)-5-{[methyl(piperidin-2-ylmethyl)amino]methyl}-3H,4H-pyrido[2,3-d]pyrimidin-4-one]	< 100	100 to 10000	< 100	< 100		
Cc1cc(Cl)cc(-c2cnc3ncn(-c4cccc(C(N)=O)c4)c(=O)c3c2CN(C)C[C@@H]2CCCN2)c1 [Compound A-31, 3-[6-(3-chloro-5-methylphenyl)-5-({methyl[(2S)-pyrrolidin-2-ylmethyl]amino}methyl)-4-oxo-3H,4H-pyrido[2,3-d]pyrimidin-3-yl]benzamide]	100 to 10000		< 100	< 100		
Cc1cc(CO)cc(-c2cnc3ncn(-c4cccc(O)c4)c(=O)c3c2CN(C)C[C@@H]2CCCN2)c1 [Compound A-37, 6-[3-(hydroxymethyl)-5-methylphenyl]-3-(3-hydroxyphenyl)-5-({methyl[(2S)-pyrrolidin-2-ylmethyl]amino}methyl)-3H,4H-pyrido[2,3-d]pyrimidin-4-one]	100 to 10000	> 10000	< 100	< 100		
CN(Cc1c(-c2cc(Cl)cc(CO)c2)cnc2ncn(-c3cccc(O)c3)c(=O)c12)C[C@@H]1CCCN1 [Compound A-38, 6-[3-chloro-5-(hydroxymethyl)phenyl]-3-(3-hydroxyphenyl)-5-({methyl[(2S)-pyrrolidin-2-ylmethyl]amino}methyl)-3H,4H-pyrido[2,3-d]pyrimidin-4-one]	< 100	100 to 10000			100 to 10000	< 100
Cc1cc(C)cc(-c2cnc3ncn(-c4cccc(C(N)=O)c4)c(=O)c3c2CN(C)C[C@@H]2CCCN2)c1 [Compound A-39, 3-[6-(3,5-dimethylphenyl)-5-({methyl[(2S)-pyrrolidin-2-ylmethyl]amino}methyl)-4-oxo-3H,4H-pyrido[2,3-d]pyrimidin-3-yl]benzamide]	100 to 10000	> 10000			> 10000	< 100
Cc1cc(C)cc(-c2cnc3ncn(-c4cccc(C#N)c4)c(=O)c3c2CN(C)C[C@@H]2CCCN2)c1 [Compound A-42, 3-[6-(3,5-dimethylphenyl)-5-({methyl[(2S)-pyrrolidin-2-ylmethyl]amino}methyl)-4-oxo-3H,4H-pyrido[2,3-d]pyrimidin-3-yl]benzonitrile]	100 to 10000	> 10000			100 to 10000	< 100
Cc1cc(C)cc(-c2cnc3ncn(-c4cc(C)cc(O)c4)c(=O)c3c2CN(C)C[C@@H]2CCCN2)c1 [Compound A-44, 6-(3,5-dimethylphenyl)-3-(3-hydroxy-5-methylphenyl)-5-({methyl[(2S)-pyrrolidin-2-ylmethyl]amino}methyl)-3H,4H-pyrido[2,3-d]pyrimidin-4-one]	< 100	> 10000			100 to 10000	< 100
Cc1cc(C)cc(-c2cnc3ncn(-c4cc(O)cc(F)c4)c(=O)c3c2CN(C)C[C@@H]2CCCN2)c1 [Compound A-45, 6-(3,5-dimethylphenyl)-3-(3-fluoro-5-hydroxyphenyl)-5-({methyl[(2S)-pyrrolidin-2-ylmethyl]amino}methyl)-3H,4H-pyrido[2,3-d]pyrimidin-4-one]	< 100	> 10000			100 to 10000	< 100
Cc1cc(C)cc(-c2cnc3ncn(-c4cc(F)cc(C#N)c4)c(=O)c3c2CN(C)C[C@@H]2CCCN2)c1 [Compound A-46, 3-[6-(3,5-dimethylphenyl)-5-({methyl[(2S)-pyrrolidin-2-ylmethyl]amino}methyl)-4-oxo-3H,4H-pyrido[2,3-d]pyrimidin-3-yl]-5-fluorobenzonitrile]	100 to 10000		< 100	100 to 10000		
CCN(CCN)Cc1c(-c2cc(C)cc(Cl)c2)cnc2nc(C)n(-c3cc(O)cc(F)c3)c(=O)c12 [Compound A-67, 5-{[(2-aminoethyl)(ethyl)amino]methyl}-6-(3-chloro-5-methylphenyl)-3-(3-fluoro-5-hydroxyphenyl)-2-methyl-3H,4H-pyrido[2,3-d]pyrimidin-4-one]	100 to 10000		< 100	< 100		
CN(Cc1c(-c2cccc3ccccc23)cnc2ncn(-c3cccc(O)c3)c(=O)c12)CC1CCCCN1 (stereo not drawn) [Compound A-69, 3-(3-hydroxy-phenyl)-5-[(methyl-piperidin-2-ylmethyl-amino)-methyl]-6-naphthalen-1-yl-3H-pyrido[2,3-d]pyrimidin-4-one]	< 100		< 100	< 100		
Cc1cc(Cl)cc(-c2cnc3ncn(-c4cc(O)cc(C#N)c4)c(=O)c3c2CN(C)C[C@@H]2CCCN2)c1 [Compound A-71, 6-(3-methyl-5-chlorophenyl)-3-(3-cyano-5-hydroxyphenyl)-5-({methyl[(2S)-pyrrolidin-2-ylmethyl]amino}methyl)-3H,4H-pyrido[2,3-d]pyrimidin-4-one]	< 100		< 100	< 100		
